One assay has as its target T1, hLigI (Homo sapiens, UniProt P18858).
T1 construct: made in house
Put plainly: High-throughput fluorescence-based DNA joining (ligation) assay. Conditions: for inhibition of hLigI (DNA ligase I), in words: in vitro screen, 100 μmol/L, the 15 hLigI inhibitors inhibited by >50%. In kind it is biochemical. The gist of the method:
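Nicked DNA substrate (10 pmol) was incubated with 0.25 pmol hLigI, with or without 100 μmol/L test compound, in duplicate. Afterwards the DNA was denatured and renatured with a 20-fold excess of unmodified oligonucleotide. Ligation forms an AF488/BHQ1 hairpin, read as reduced fluorescence at 518 nm.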

The next assay has as its target T2, human DNA ligase III (Homo sapiens, UniProt P49916).
T2 sequence (P49916 1-862 isoform P49916-4): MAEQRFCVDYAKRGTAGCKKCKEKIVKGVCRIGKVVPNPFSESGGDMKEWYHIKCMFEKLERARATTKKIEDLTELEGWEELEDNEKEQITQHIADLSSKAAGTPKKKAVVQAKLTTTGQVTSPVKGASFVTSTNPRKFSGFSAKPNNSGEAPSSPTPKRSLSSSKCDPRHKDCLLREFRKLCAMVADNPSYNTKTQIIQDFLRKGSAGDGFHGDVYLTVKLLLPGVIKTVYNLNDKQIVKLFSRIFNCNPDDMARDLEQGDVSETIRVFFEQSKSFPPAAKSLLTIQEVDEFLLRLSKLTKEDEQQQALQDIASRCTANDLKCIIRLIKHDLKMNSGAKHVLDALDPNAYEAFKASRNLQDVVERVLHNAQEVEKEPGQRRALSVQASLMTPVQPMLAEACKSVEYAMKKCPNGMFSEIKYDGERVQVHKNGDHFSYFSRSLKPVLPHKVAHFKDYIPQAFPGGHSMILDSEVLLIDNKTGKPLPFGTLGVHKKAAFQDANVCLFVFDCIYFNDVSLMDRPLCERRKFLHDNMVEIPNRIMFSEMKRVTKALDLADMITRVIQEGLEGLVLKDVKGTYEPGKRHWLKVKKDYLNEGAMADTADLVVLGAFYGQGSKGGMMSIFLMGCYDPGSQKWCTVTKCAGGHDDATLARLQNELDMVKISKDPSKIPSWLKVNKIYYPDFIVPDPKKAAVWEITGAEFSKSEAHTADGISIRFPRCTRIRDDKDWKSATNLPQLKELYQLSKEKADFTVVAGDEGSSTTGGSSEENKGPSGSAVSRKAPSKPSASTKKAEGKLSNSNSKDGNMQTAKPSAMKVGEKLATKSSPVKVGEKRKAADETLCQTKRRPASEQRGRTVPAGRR
Described as above. In kind it is biochemical. Conditions: for inhibition of human DNA ligase III, in words: in vitro screen. The gist of the method: (§1)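 Ligation joins an AF488-labelled and a BHQ1-labelled oligonucleotide. After denaturation and renaturation with a 20-fold excess of unlabelled competitor strand, the product forms a quenched hairpin, so joining is read as loss of 518 nm fluorescence. Ligase III used a nicked duplex; ligase IV used two duplexes with short complementary single-strand ends.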

For a further assay, the target named is human DNA ligase IV (Homo sapiens, UniProt P49917). The description is as above. Conditions: for inhibition of human DNA ligase IV, in words: in vitro screen. In kind it is biochemical. The gist of the method:
as §1

The next assay addresses T3, T4 DNA ligase (Enterobacteria phage T4, UniProt P00970).
T3 construct: purchased NEB
T3 sequence (P00970 1-487): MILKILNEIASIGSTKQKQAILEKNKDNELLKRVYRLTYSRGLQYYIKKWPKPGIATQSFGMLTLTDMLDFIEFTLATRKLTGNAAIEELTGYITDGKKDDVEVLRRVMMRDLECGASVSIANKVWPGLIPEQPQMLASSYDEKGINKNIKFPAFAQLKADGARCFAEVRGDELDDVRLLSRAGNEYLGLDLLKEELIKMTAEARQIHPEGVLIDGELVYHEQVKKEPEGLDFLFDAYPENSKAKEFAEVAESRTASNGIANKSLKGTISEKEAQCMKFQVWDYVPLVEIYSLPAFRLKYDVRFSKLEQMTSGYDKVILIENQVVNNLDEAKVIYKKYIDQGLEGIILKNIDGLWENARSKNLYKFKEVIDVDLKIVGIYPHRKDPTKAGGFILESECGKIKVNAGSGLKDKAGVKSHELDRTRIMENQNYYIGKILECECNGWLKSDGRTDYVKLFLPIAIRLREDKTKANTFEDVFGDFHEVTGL
Put plainly: High-throughput fluorescence-based DNA joining assay, non-specific inhibitor control. In kind it is biochemical, bacteriophage T4. Conditions: for inhibition of T4 DNA ligase, in words: in vitro screen, 100 μmol/L. The gist of the method:
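This counter-screen used a FRET-based DNA joining assay. Duplicate reactions held 10 pmol nicked DNA substrate and 10 units T4 DNA ligase, with or without 100 μmol/L compound. T4 ligase lacks the DNA-binding domain targeted in silico, so compounds inhibiting it were flagged as non-specific, likely DNA-binding.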

Setting [1] is: 100 uM, read-out: % activity Inhibition hLigI 100 uM.
Setting [2] is: 100 μM, read-out: In vitro % inhib hLigI 100.
Setting [3] is: 100 μM, read-out: In vitro % inhib hLigIII 100.
Where [4] appears, read: 100 uM, Ø not defined (0 in Table 5A).
[5] abbreviates: 100 μM, read-out: In vitro % inhib hLigIV 100.
[6] abbreviates: 100 μM, read-out: In vitro % inhib T4 100.
[7] abbreviates: read-out: % activity Inhibition LigT4 100 uM.
Where [8] appears, read: 100 μM, read-out: % of inhibition @ 100 μM (Helen's data) hLigI.
Where [9] appears, read: 100 uM, Ø not defined (0 in Table 5A), read-out: % activity Inhibition hLigIII 100 uM.
[10] abbreviates: read-out: % of inhibition @ 100 μM (Helen's data) hLigIII.
[11] abbreviates: 100 μM, read-out: % of inhibition @ 100 μM (Helen's data) hLigIV.

These results are taken from patent publication US9757375B2, “Compounds that inhibit human DNA ligases and methods of treating cancer” (University of Maryland, Baltimore, priority 2007, dated 2017).

“Also recorded” adds a separate entry of the source. Like-named read-outs stand apart in the source and are kept apart here.

T1 sequence (P18858 whole entry): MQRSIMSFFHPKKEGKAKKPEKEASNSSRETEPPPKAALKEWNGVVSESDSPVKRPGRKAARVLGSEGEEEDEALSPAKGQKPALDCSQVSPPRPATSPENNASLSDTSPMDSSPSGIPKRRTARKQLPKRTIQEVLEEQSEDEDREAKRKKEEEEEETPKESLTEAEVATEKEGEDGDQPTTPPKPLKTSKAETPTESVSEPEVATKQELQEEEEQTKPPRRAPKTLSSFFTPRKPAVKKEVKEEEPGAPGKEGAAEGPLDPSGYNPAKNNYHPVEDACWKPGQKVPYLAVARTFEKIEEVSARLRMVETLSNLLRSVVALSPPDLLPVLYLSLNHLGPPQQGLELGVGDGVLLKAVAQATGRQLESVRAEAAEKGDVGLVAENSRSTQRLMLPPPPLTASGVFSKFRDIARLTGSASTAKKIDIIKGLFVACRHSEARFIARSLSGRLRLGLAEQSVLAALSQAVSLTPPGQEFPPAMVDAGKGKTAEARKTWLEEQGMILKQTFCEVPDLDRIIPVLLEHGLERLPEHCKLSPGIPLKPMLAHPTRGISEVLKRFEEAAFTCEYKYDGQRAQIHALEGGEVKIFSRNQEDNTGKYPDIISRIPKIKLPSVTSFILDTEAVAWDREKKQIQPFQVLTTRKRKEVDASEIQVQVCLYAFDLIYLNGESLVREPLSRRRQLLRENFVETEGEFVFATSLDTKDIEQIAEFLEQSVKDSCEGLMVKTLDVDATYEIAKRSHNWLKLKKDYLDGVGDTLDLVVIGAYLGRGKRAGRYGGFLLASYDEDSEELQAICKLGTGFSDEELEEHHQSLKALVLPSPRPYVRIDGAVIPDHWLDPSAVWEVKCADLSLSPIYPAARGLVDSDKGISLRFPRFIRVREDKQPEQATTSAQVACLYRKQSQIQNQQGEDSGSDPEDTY
Sequence of human DNA ligase IV (P49917 whole entry): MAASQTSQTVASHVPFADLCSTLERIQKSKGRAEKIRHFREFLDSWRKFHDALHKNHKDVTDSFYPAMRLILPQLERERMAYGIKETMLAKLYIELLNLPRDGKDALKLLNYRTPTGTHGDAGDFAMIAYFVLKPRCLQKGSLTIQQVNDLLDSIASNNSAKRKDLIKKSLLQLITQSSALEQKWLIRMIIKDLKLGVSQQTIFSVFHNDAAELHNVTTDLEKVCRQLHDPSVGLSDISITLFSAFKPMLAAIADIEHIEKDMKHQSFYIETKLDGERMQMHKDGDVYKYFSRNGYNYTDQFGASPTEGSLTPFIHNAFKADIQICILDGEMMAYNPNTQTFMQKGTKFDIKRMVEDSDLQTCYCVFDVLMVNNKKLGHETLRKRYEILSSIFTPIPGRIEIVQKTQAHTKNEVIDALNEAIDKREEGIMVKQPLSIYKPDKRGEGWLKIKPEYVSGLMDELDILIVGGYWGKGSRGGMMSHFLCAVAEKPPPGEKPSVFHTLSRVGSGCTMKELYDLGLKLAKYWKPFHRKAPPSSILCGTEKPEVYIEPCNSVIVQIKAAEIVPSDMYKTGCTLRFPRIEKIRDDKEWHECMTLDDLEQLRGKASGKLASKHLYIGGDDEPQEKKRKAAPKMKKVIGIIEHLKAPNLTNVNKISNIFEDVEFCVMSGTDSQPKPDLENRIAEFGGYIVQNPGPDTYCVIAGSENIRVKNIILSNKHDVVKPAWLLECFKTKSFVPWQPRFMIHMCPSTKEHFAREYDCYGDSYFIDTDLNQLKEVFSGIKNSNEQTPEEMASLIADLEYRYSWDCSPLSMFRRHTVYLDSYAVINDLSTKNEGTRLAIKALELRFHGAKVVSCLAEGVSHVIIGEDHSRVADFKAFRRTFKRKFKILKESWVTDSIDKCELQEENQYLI
Sequence of human DNA ligase IV (Q13426 whole entry partner): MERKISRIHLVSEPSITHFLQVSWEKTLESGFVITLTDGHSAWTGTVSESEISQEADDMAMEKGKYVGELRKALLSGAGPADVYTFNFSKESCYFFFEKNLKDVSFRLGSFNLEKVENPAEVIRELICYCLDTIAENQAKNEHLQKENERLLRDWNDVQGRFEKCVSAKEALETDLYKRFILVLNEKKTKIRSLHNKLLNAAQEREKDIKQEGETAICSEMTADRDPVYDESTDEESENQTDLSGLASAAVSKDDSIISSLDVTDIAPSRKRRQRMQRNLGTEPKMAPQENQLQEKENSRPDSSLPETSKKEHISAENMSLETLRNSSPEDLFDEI

Consider `C/C(O)=C1/C(=O)N(c2nc3ccccc3s2)N=C1c1ccccc1` [Compound 43], for which the inhibition at 100 µM was found to be 29.2 ± 3.5% at hLigI (setting [1]); 29 ± 4% on hLigI (setting [2]); 0% at human DNA ligase III (setting [3]); 0% at human DNA ligase IV (setting [5]); 0% at T4 DNA ligase (setting [6]); 0% at T4 DNA ligase (setting [7]). The “inhibition of hLigI (DNA ligase I), in words” value (from here on “inhibition of hLigI”) against hLigI is listed as “specific for DNA ligase I”. For the same compound, the “% activity Inhibition hLigIII 100 uM” value on human DNA ligase III (setting [4]) is “Ø”. The “% activity Inhibition hLigIV 100 uM” value on human DNA ligase IV (setting [4]) is “Ø”.
For `O=C(O)CSc1cc(Cl)c2nonc2c1[N+](=O)[O-]` [Compound 64], the inhibition at 100 µM was 60.6 ± 0.54% on hLigI (setting [1]); 61% at hLigI (setting [8]); 61 ± 1% at hLigI (setting [2]); 49 ± 1% at human DNA ligase III (setting [3]); 48.5 ± 0.1% on human DNA ligase III (setting [9]); 49% on human DNA ligase III (setting [10]). Also, the inhibition at 100 µM worked out at 52% on human DNA ligase IV (setting [11]); 52 ± 1% at human DNA ligase IV (setting [5]); 51.9 ± 1.2% on human DNA ligase IV (100 uM, Ø not defined (0 in Table 5A), read-out: % activity Inhibition hLigIV 100 uM); 18 ± 8% at T4 DNA ligase (setting [6]); 18.4 ± 8.4% on T4 DNA ligase (setting [7]). Moreover, at hLigI, the “inhibition of hLigI” value is “inhibited hLigI; also recorded: inhibit all three human DNA ligases”. Also, the “inhibition of human DNA ligase III, in words” value at human DNA ligase III is listed as “inhibit all three human DNA ligases”. Moreover, the “inhibition of human DNA ligase IV, in words” value against human DNA ligase IV is listed as “inhibit all three human DNA ligases”.
Consider `Cc1c(Br)cc(NCC(=O)N/N=C\c2cc([N+](=O)[O-])ccc2O)cc1Br` [Compound 67], for which the inhibition at 100 µM came to 78.3 ± 8.5% at hLigI (setting [1]); 78% on hLigI (setting [8]); 78 ± 8% at hLigI (setting [2]); 88 ± 12% on human DNA ligase III (setting [3]); 88.2 ± 11.6% at human DNA ligase III (setting [9]); 88% at human DNA ligase III (setting [10]). The inhibition at 100 µM was less than 20% at human DNA ligase IV (setting [11]), 0% at human DNA ligase IV (setting [5]), 0% on T4 DNA ligase (setting [6]) and 0% on T4 DNA ligase (setting [7]). Besides, the “inhibition of hLigI” value against hLigI was “inhibited hLigI; also recorded: inhibit hLigI but not T4 DNA ligase; also recorded: specifically inhibit DNA ligases I and III; also recorded: inhibit DNA ligase 1; also recorded: inhibits both hLigI and hLigIII”. Also, at human DNA ligase III, the “inhibition of human DNA ligase III, in words” value is “specifically inhibit DNA ligases I and III; also recorded: inhibits DNA ligase III; also recorded: inhibits both hLigI and hLigIII”. The “% activity Inhibition hLigIV 100 uM” value on human DNA ligase IV (setting [4]) is recorded as “Ø”. For the same compound, the “inhibition of human DNA ligase IV, in words” value at human DNA ligase IV is “do not inhibit DNA ligase IV”. Moreover, at T4 DNA ligase, the “inhibition of T4 DNA ligase, in words” value is listed as “inhibit hLigI but not T4 DNA ligase”.
In the case of `O=c1[nH]ncc(N/N=C\c2ccc(O)c([N+](=O)[O-])c2)c1Cl` [Compound 82], the inhibition at 100 µM on hLigI (setting [1]) turned out to be 59.8 ± 1.7%; at hLigI (setting [2]), 60 ± 2%; on human DNA ligase III (setting [3]), 29 ± 7%; at human DNA ligase III (setting [9]), 29.2 ± 7.3%; at human DNA ligase IV (setting [5]), 0%; at T4 DNA ligase (setting [6]), 14 ± 11%. For the same compound, at T4 DNA ligase (setting [7]), the inhibition at 100 µM was 13.9 ± 11.4%. Also, the “inhibition of hLigI” value on hLigI was “inhibited hLigI; also recorded: inhibit hLigI but not T4 DNA ligase; also recorded: specific for DNA ligase I; also recorded: inhibit DNA ligase 1; also recorded: only inhibits DNA ligase I; also recorded: inhibits only hLigI”. For the same compound, at human DNA ligase IV (setting [4]), the “% activity Inhibition hLigIV 100 uM” value is reported as “Ø”. Further, the “inhibition of human DNA ligase IV, in words” value against human DNA ligase IV is reported as “do not inhibit DNA ligase IV”. For the same compound, the “inhibition of T4 DNA ligase, in words” value on T4 DNA ligase is listed as “inhibit hLigI but not T4 DNA ligase”.
